One assay has as its target T1, MR1 (Homo sapiens, UniProt Q95460, C283S/G138C).
T1 construct: made in house; host or cells: Escherichia coli BL21(DE3) per the general methods
Description: Fluorescence polarization competitive ligand binding (JYM20, DCF-loaded open MR1). To be noted: 10 nM JYM20; 200 nM DCF-loaded open MR1; pH 7.4. A general note: Polarisation of emitted light reports the rotation of a fluorescent probe.

Assay [1] deals with WT or open HLA-A*29:02/FTSDYYQLY
Description: Fluorescence polarization IC50 competition assay. Format: binding, human. Particulars: competitor vs FITCKLIDVFHQY
From the text:
Kinetic association measurements were collected as previously described. Non-linear regression fitting allowed calculating plateau polarization (mP) values for each kinetic curve. Log transformed values of each peptide concentration were plotted against the plateau mP value, and an IC50 curve was fit.

T1 sequence (Q95460 with tags, fused parts or gaps G138C/C283S): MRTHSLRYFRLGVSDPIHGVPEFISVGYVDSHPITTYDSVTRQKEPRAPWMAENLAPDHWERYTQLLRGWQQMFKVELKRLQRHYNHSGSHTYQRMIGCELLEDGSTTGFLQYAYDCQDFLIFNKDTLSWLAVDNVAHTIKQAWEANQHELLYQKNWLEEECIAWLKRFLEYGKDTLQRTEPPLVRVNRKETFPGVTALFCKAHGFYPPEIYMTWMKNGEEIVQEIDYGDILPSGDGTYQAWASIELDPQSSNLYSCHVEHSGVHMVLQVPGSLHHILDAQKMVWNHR
T1 sequence (as listed by the source partner): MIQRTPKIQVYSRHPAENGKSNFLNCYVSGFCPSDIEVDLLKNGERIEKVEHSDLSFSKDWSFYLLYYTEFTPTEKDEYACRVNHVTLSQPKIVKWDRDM
Description for MR1: To optimize fluorescence polarization (FP), a direct binding assay between JYM20 and MR1 was conducted to determine the minimum concentration of MR1 and JYM20 required for a maximal signal, as well as the buffer conditions. The FP signal is generated by polarized excitation wavelengths, resulting in depolarized emission when JYM20 is free in solution (with low FP value). […] Because DCF is not a covalent binding ligand, the DCF-loaded open MR1 and JYM20 can together screen a wide range of cancer metabolites for MR1.
Briefly, a buffer consistent of 150 mM NaCl, 20 mM sodium phosphate, 0.05% Tween-20, pH 7.4 was used since Applicants don't need nonphysiologically acidic environment to break the Schiff base. A serial dilution of cancer metabolites in a range of 60-0.06 mM, which were selected from the preliminary in silico screening, was added to 200 nM MR1 and 10 nM JYM20 in a final volume of 100 μL. The kinetic association was monitored for 16 hours, and polarization measurements were recorded every 186 seconds. Excitation and emission values used to monitor the fluorescence of TAMRA-labeled peptides were 531 and 595 nm. All experiments were performed in triplicates at room temperature. Raw parallel (III) and perpendicular emission intensities (I⊥) were collected and converted to polarization (mP) values using the equation 1000*[(III−(G*I⊥))/(III+(G*I⊥))]. An optimized G-factor was determined to be 0.33 for TAMRA-labeled peptides in calculating baseline fluorescence. Non-linear regression fitting of one phase association allowed calculating plateau polarization (mP) values for each kinetic curve. Log transformed values of each peptide concentration were plotted against the plateau mP value, and an IC50 curve was fit using log (inhibitor) vs. response (three parameters) curve from GraphPad Prism v9^9.

On to `O=C(O)C1=CC(=O)[C@@H](O)[C@H](O)C1` [3DA, 3-Dehydroshikimic acid], for which the “relative binding affinities (IC50) to MR1” value (“relative binding affinities” for short) on MR1 is recorded as “low-millimolar”.

As for `O=C(O)Cc1ccccc1Nc1c(Cl)cccc1Cl` [DCF, diclofenac, reference compound], on MR1, the “relative binding affinities” value is recorded as “low-millimolar”.

For `O=C(O)C1=C[C@@H](O)[C@@H](O)[C@H](O)C1` [SKA, shikimic acid], the “relative binding affinities” value on MR1 was “low-millimolar”.

On to `O=c1ccn([C@@H]2O[C@H](COP(=O)(O)O)[C@@H](O)[C@H]2O)c(=O)[nH]1` [UMP, Uridine 5′-monophosphate], for which, on MR1, the “relative binding affinities” value is reported as “low-millimolar”.

Take ALIDVFHQY: the “IC50, open compared to WT” value in assay [1] is “same IC50”.

For the origin of these results see patent publication US20260097105A1, “SYSTEMS, FORMULATIONS AND METHODS FOR GENERATING UNIVERSAL PEPTIDE/MHC COMPLEXES WITH ENGINEERED DISULFIDE CONNECTING THE HEAVY AND LIGHT CHAINS” (priority 2022, published 2026).
